Results published in US20040242662A1 (priority 2000, published 2004).

Tests used:
[1] = logP determination by HPLC (EEC Directive 79/831 Annexe V.A8); assay type: physicochemical; settings: gradient method, acetonitrile/0.1% aqueous phosphoric acid
Experimental: The logP values were determined in accordance with EEC Directive 79/831 Annexe V.A8 by HPLC (gradient method, acetonitrile/0.1% aqueous phosphoric acid).

Phytophthora infestans = assay type: in vivo; settings: tomato, protective; application rate 50 g/ha; evaluation three days after inoculation; 100% means no infection

SMILES	melting point [°C]	chromatographic logP [1]	Efficacy in % (Phytophthora infestans) [%]
Cc1c(Cl)nc(Br)n1S(=O)(=O)c1cccnc1Cl [Example 1, 3-[(2-bromo-4-chloro-5-methyl-1H-imidazol-1-yl)-sulfonyl]-2-chloropyridine]	144 to 146	2.9	–
Cc1c(Br)nc(Br)n1S(=O)(=O)c1cccnc1Cl [Example 2]	154 to 158	2.97	–
Cc1c(Cl)nc(Br)n1S(=O)(=O)c1cccnc1Cl [drawing 18]	–	–	94
Cc1c(Br)nc(Br)n1S(=O)(=O)c1cccnc1Cl [drawing 19]	–	–	94
